Reference: patent publication US11071727B2, “Therapeutic targeting of proteolytic cleavage of the mixed lineage leukemia gene product (MLL1) by taspase1 using kinase inhibitors” (Northwestern University, priority 2018, dated 2021)

Legend:
MLL-AF9 leukemia = test: MLL-AF9 syngeneic leukemia mouse model; type: in vivo
Experimental: FIG. 7. CKII inhibition delays the leukemia progression and improves survival of MLL-AF9 mice and MOLM13 human leukemia mice. (A) Timeline of the MLL-AF9 leukemia mouse model and CKII inhibitor treatment. Drug treatments were started at day 10 after transplantation. (B) Kaplan-Meier survival curves of secondary transplanted C57BL/6 mice after vehicle and CX-4945 treatment at day 10. Vehicle or CX-4945 (50 mg/kg or 75 mg/kg) were administered twice daily by oral gavage for a total of twenty treatments. Leukemia was confirmed at the endpoint for each transplant mouse. The number (n) indicates the number of mice in each group. The p values were calculated using the log rank test. (C) Timeline of the MOLM13 human leukemia xenograft mice. Drug treatments were started at day 5 after transplantation. (D) Kaplan-Meier survival curves of NSGS mice after vehicle and CX-4945 treatment. Vehicle or CX-4945 (50 mg/kg) were administered twice daily by oral gavage for a total of twenty treatments. Leukemia was confirmed at the endpoint for each transplant mouse by flow cytometry, H&E staining and histology analysis. The number (n) indicates the number of mice in each group. The p value was calculated using the log rank test. (E) Taspase1 cleavage regulation of MLL1 mediated by CKII phosphorylation. MLL1 cleavage by taspase1 primed the protein to degradation pathway. […]

[1] = system: MLL-AFF1, AFF4 and ELL2 occupancy; test: ChIP-seq of MLL-AFF1, AFF4 and ELL2 occupancy in SEM cells; type: cell-based, human
Experimental: FIG. 6. CKII inhibition increases genome-wide MLL occupancy and excludes SEC recruitment in MLL leukemia cells. (A) and (B) MLL1C occupancy in CX-4945 or TTP22 treated cells were shown relative to DMSO control. […] (C) Track examples of the MLL1 occupancy at the promoter regions of ELF2 and C6orf211. (D) CX-4945 inhibition of leukemia cell proliferation. Multiple MLL leukemia (orange lines) and non-MLL leukemia (blue lines) were cultured with different doses of CX-4945 for 3 days. Cell number was determined by cell counter and normalized to DMSO control. (E) SEM cells were treated with 0, 5 or 10 μM of CX-4945 for 30 hours and western blot was performed to determine the MLL1 full-length protein levels and MLL-AF4 fusion protein levels. (F) MLL-AFF1, AFF4 and ELL2 occupancies were decreased by CX-4945 treatment in SEM cells.
ChIP-seq Analysis. 5×10^7 cells were used for each ChIP assay, as performed as previously described (Chen et al. 2015). Peaks were called with MACS v1.4.2 (Zhang et al. 2008) using default parameters and were annotated by the HOMER software (Heinz et al. 2010). Metaplots were generated using ngsplot (Shen et al. 2014). […] Differential occupancy of MLL1 was evaluated by edgeR, and peaks with Benjamini-Hochburg adjusted p-values less than 0.05 were considered to be differentially occupied. […]

O=C(O)c1ccc2c(c1)nc(Nc1cccc(Cl)c1)c1ccncc12 [CX-4945, 5-(3-chlorophenylamino)benzo[c][2,6]naphthyridine-8-carboxylic acid]
leukemia progression and survival (MLL-AF9 leukemia; C57BL/6 mice, 50 mg/kg or 75 mg/kg twice daily by oral gavage, twenty treatments from day 10): significantly delayed the leukemia progression and improved the survival | weight of the mice (MLL-AF9 leukemia; MLL-AF9 syngeneic mouse model, compared with vehicle control group): did not affect the weight of the mice | genome-wide binding of MLL-AFF1, AFF4 and ELL2 [1]: decrease
